Results published in paper PMC8899577, “Targeting the anti-apoptotic Bcl-2 family proteins: machine learning virtual screening and biological evaluation of new small molecules” (Theranostics, 2022).

What was measured:
Type in all cases: cell-based, Human
H1299 cells [1] = assay: Western blot of LC3B-I/LC3B-II (autophagy), H1299; details: 72 h, increasing concentration
Experimental: Western blot analyses of total protein extracts were performed as previously described. Immunodetection was performed using antibodies directed to poly (ADP-ribose) polymerase (PARP; BD Biosciences San Diego, CA, USA), LC3B (Cell Signaling Technology, Danvers, MA), HSP72/73 (Calbiochem, EMD Biosciences, La Jolla, CA), Bcl-2 (SC-509, Santa Cruz Biotechnology Inc, Dallas, TX, USA), Bcl-xL (SC-271121, Santa Cruz Biotechnology Inc), Mcl-1 (SC-12756, Santa Cruz Biotechnology Inc) α-tubulin (Santa Cruz Biotechnology Inc) actin (Sigma-Aldrich, St. Louis, Missouri, USA). Anti-rabbit or anti-mouse immunoglobulin G-horseradish peroxidase-conjugated antibodies (Amersham Biosciences, Freiburg, Germany) were used as secondary antibody. […]
Figure 6 Analysis of autophagosome accumulation in M14 and H1299 cells after treatment with IS20 or IS21. […] Ratio of LC3B-II on LC3B-I levels, after normalization on HSP72/73, Actin or α-Tubulin, is quantified by densitometric analysis. (D) (Upper panels) Representative images and (lower panels) relative quantification of fluorescence microscopic analysis of LC3B puncta positive cells in M14 EGFP-LC3B and H1299 EGFP-LC3B transfected cells, treated with IS20 or IS21 (20 µM for 72h). […] Cells with more than 10 puncta were considered autophagy-positive. p-values were calculated between untreated (Ctrl) and treated cells, * p < 0.05.

[2] = system: MDA-MB-231 breast carcinoma cells; assay: Cell viability by MTT, MDA-MB-231; details: 20 µM for 72 h, vs control
Experimental: The effect of compounds on cell viability was performed by measuring 3-[4,5-dimethylthiazol-2-yl]-2,5-diphenyltetrazolium bromide inner salt (MTT, Sigma-Aldrich) dye absorbance (solid tumor cells) or by quantization of ATP present in metabolically active cells using CellTiter-Glo® Luminescent (Promega, Fitchburg, Wisconsin, USA) (hematologic cells) following manifacturer's protocol. To evaluate the cell colony-forming ability, cell suspension from different samples was seeded into 60-mm Petri dishes. After 10 days, colonies were stained with 2% methylene blue in 95% ethanol and counted (1 colony > 50 cells). The surviving fractions were calculated as the ratio of absolute survival of the treated sample/survival of DMSO-treated control sample.
Figure 4 Analysis of the effect of IS20 and IS21 on cell viability, clonogenic ability and tumor sphere formation in cancer cells. […] (B) Representative images and quantification of clonogenic ability evaluated in M14 and H1299 cells treated with IS20 or IS21 (20 μM for 72 h). […] (C) Quantification of tumor sphere formation of M14 and H1299 cells treated with IS20 or IS21 (20 μM for 72 h). […] (A-C) Data are reported as mean ± SD of three independent experiments. p-values were calculated between control (Ctrl) and treated cells, ** p < 0.001 and *** p < 0.0001.

H1299 cells [3] = assay: Flow cytometry subG1 peak (PI staining), H1299; details: 20 µM for 72 h
Experimental: Flow cytometric analysis (BD Accuri™ C6, BD Biosciences) was performed to evaluate cell cycle distribution by propidium iodide (PI) staining, and cell viability by using the PI dye exclusion assay as previously reported.
Figure 5 Analysis of apoptosis induction by IS20 and IS21 in leukemia, melanoma and NSCLC cells. […] (A-F) Reported images are representative of two independent experiments with similar results. HSP72/73 or α-Tubulin are shown as loading and transferring control. (G) Flow cytometric quantification of cells in the subG1 peak of cell cycle distribution by propidium iodide staining in HL60 cell line treated with IS20 or IS21 (20 μM for 24 h) and in M14, H1299 and MDA-MB-231 cell lines treated with IS20 or IS21 (20 μM for 72 h). Data are reported as mean ± SD of three independent experiments. p-values were calculated between control (Ctrl) and treated cells, * p < 0.05. (H) Flow cytometric quantification of cells in the subG1 peak by propidium iodide staining in M14 and H1299 cell lines treated with IS20 or IS21 (20 μM, 72 h) in presence or absence of the pan caspase inhibitor z-VAD (50 μM). p-values were calculated between treated control (Ctrl) cells, # p < 0.01, ## p < 0.001 or between cells treated with IS20 or IS21 alone or in combination with z-VAD, * p < 0.05, ** p < 0.005. (G-H) Data are reported as mean of two (H) or three (G) experiments ± SD.

## CCCCOc1ccc(C2/C(=C(\O)c3ccc4c(c3)CC(C)O4)C(=O)C(=O)N2c2nnc(SCc3ccc(Cl)cc3)s2)cc1OCC (stereo not drawn) [IS20]
H1299 cells [1]
  ratio of LC3B-II on LC3B-I protein levels, H1299: higher level
[2]
  cell viability MDA-MB-231: not significantly perturbed
H1299 cells [3]
  subG1 peak of cell cycle distribution, H1299: presence of subG1 peak

## CCCCCOc1ccc(C2/C(=C(\O)c3ccc4c(c3)CC(C)O4)C(=O)C(=O)N2c2nnc(SCc3ccc(Cl)cc3)s2)cc1OCC (stereo not drawn) [IS21]
H1299 cells [1]
  ratio of LC3B-II on LC3B-I protein levels, H1299: higher level
[2]
  cell viability MDA-MB-231: not significantly perturbed
H1299 cells [3]
  subG1 peak of cell cycle distribution, H1299: presence of subG1 peak
